Measured values taken from patent US20150119267A1, “INHIBITION OF COLONY STIMULATING FACTOR-1 RECEPTOR SIGNALING FOR THE TREATMENT OF BRAIN CANCER” (SLOAN-KETTERING INSTITUTE FOR CANCER RESEARCH, priority 2012, published 2015).

What was measured:
Ink4a/Arf−/− BMDMs = assay: MTT assay, Nestin-Tv-a;Ink4a/Arf−/− BMDMs; format: cell-based, mouse
Protocol: Cell growth rate was determined using the MTT cell proliferation kit (Roche). […] Media was changed every 48 hours. BMDM and CRL-2467 cells were supplemented with 10 ng/ml and 30 ng/ml recombinant mouse CSF-1 respectively unless otherwise indicated. Ten μl of MTT labeling reagent was added to each well and then incubated for 4 hours at 37° C., followed by the addition of 100 μl MTT solubilization reagent overnight. The mixture was gently resuspended and absorbance was measured at 595 nm and 750 nm on a SPECTRAMAX 340 pc plate reader (Molecular Devices).

[1] = tested on: PDGF-driven gliomas (PDG); assay: Long-term survival trial in PDG mice; format: in vivo
established PDG gliomas = assay: Short-term 7 day trial on established tumors (MRI, histology); format: in vivo, mouse; conditions: for Apoptosis (% CC3+) / Macrophages (% CD68+) / Phagocytic Capacity / Proliferation (% BrdU+Olig2+) / Total DAPI+ Cells / Tumor Cells (% Olig2+) / Vasculature (CD31 MVD): relative to vehicle
Mrc1/CD206 = Mrc1/CD206 expression in BMDMs (flow cytometry, qRT-PCR); format: cell-based, mouse; conditions: in vitro, GCM
Protocol: (§1) Media that had been conditioned by glioma tumor cell lines grown in serum free media for 24 hours was passed through 0.22 μm filters to remove cellular debris, and is referred to herein as glioma cell-conditioned media (GCM). GCM was used to stimulate differentiated C57BL/6 WT or β-actin-GFP^+ BMDMs. Control macrophages received fresh media containing 10% FBS and 10 ng/ml recombinant mouse CSF-1.
For mouse primary glioma cultures (containing a mixed population of tumor cells, TAMs, astrocytes etc.; see FIG. 15), 1×10^6 cells were cultivated in DMEM+10% FBS in the presence of the CSF-1R inhibitor or DMSO as vehicle (n=6 independently isolated cultures). For BMDMs, 1×10^6 cells were cultivated in DMEM supplemented with recombinant mouse CSF-1 or GCM in the presence of the CSF-1R inhibitor or DMSO as vehicle. After 48 hours, cells were scraped and washed with FACS buffer. Cells were counted and incubated with 1 μl of Fc Block (BD Pharmingen) per 10^6 cells for at least 15 minutes at 4° C. Cells were then stained with CD45 and CD11b antibodies (Table 7) for 10 minutes at 4° C. and washed with FACS buffer. Cells were fixed and permeabilized using the BD Cytofix/Cytoperm™ kit (BD Biosciences) according to the manufacturer's instructions. Subsequently cells were stained with anti-CD206 antibody (Table 7). […]

[2] = tested on: glioma cells co-cultured with BMDMs; assay: Glioma cell / BMDM co-culture cell cycle analysis; format: cell-based, mouse; conditions: 670 nM BLZ945, 48 hours
Protocol: as §1
Following collection of trypsinized co-cultured cells, wells were rinsed in additional media and this volume was collected to ensure harvesting of all macrophages, which adhered tightly to cell culture dishes. Samples were then washed once with FACS buffer, followed by incubation for 10 minutes at room temperature in permeabilizing buffer (10 mM PIPES, 0.1 M NaCl, 2 mM MgCl2, 0.1% Triton X-100, pH 6.8) containing 0.1 mg DAPI (Invitrogen). After acquisition on an LSR II flow cytometer (BD) using a UV laser (350-360 nm), cell cycle status of glioma tumor cells was analyzed using the Flow Jo Dean-Jett-Fox program for cell cycle analysis.

normal microglia = assay: Microglia in normal non-tumor bearing mice, flow cytometry; format: in vivo, mouse; conditions: 200 mg/kg once per day for 7 days
Protocol: Data are presented as mean±SEM. […] Circles represent individual mice (n=5-6 per group). P values were obtained using unpaired two-tailed Student's t-test; *P<0.05.
As many immune cell epitopes are papain-sensitive, for investigation of immune cell infiltration by flow cytometric analysis, tumors were digested to a single cell suspension by incubation for 10 minutes at 37° C. with 5 mL of 1.5 mg/ml collagenase III (Worthington) and 0.06 mg/mL DNase I in 1× Hanks Balanced Salt Solution (HBSS) with calcium and magnesium. The cell suspension was then washed with PBS and passed through a 40 μm mesh to remove undigested tissue. To remove myelin debris, the cell pellet was resuspended at room temperature in 15 ml of 25% Percoll prepared from stock isotonic Percoll (90% Percoll [Sigma], 10% 10× HBSS), and then spun for 15 minutes at 1500 rpm (Sorvall Legend RT) with accelerator and brake set to 1. The cell pellet was then washed with lx HBSS prior to being resuspended in FACS buffer.
After counting, cells were incubated with 1 μl of Fc Block for every million cells for at least 15 minutes at 4° C. Cells were then stained with the appropriate antibodies for 10 minutes at 4° C., washed with FACS buffer, and resuspended in FACS buffer containing DAPI (5 mg/ml diluted 1:5000) for live/dead cell exclusion.

CNC(=O)c1cc(Oc2ccc3nc(N[C@@H]4CCCC[C@H]4O)sc3c2)ccn1 [BLZ945]
BMDM survival (Ink4a/Arf−/− BMDMs): blocked the survival
tolerability ([1]; 200 mg/kg once daily, up to 26 weeks): well-tolerated
asymptomatic mice with no detectable lesions at end stage ([1]; 26-week endpoint): 55.6%
cohort still alive at trial endpoint (symptom-free survival) ([1]; 26 weeks post-injection, 200 mg/kg once daily from 2.5 weeks): 64.3%
tumor grade ([1]; versus vehicle, long-term survival trial): significantly less malignant tumors
Apoptosis (% CC3+) (established PDG gliomas; BLZ945, Day 3): +17-fold
Macrophages (% CD68+) (established PDG gliomas; BLZ945, Day 3): +3-fold
Phagocytic Capacity (established PDG gliomas; BLZ945, Day 3): +11.5-fold
Proliferation (% BrdU+Olig2+) (established PDG gliomas; BLZ945, Day 3): −91%
Total DAPI+ Cells (established PDG gliomas; BLZ945, Day 3): −72%
Tumor Cells (% Olig2+) (established PDG gliomas; BLZ945, Day 3): −27%
Apoptosis (% CC3+) (established PDG gliomas; BLZ945, Day 7): +6-fold
Macrophages (% CD68+) (established PDG gliomas; BLZ945, Day 7): +2-fold
Phagocytic Capacity (established PDG gliomas; BLZ945, Day 7): +5.0-fold
Proliferation (% BrdU+Olig2+) (established PDG gliomas; BLZ945, Day 7): −67%
Total DAPI+ Cells (established PDG gliomas; BLZ945, Day 7): −80%
Tumor Cells (% Olig2+) (established PDG gliomas; BLZ945, Day 7): −77%
Vasculature (CD31 MVD) (established PDG gliomas; BLZ945, Day 7): −17%
Tumor Volume (Day −1 vs Day 6) (established PDG gliomas; BLZ945, Day 7, start 4.5-40 mm3): +0.68%
Apoptosis (% CC3+) (established PDG gliomas; BLZ945 Large, Day 3): +9-fold
Macrophages (% CD68+) (established PDG gliomas; BLZ945 Large, Day 3): +2-fold
Phagocytic Capacity (established PDG gliomas; BLZ945 Large, Day 3): +7.1-fold
Proliferation (% BrdU+Olig2+) (established PDG gliomas; BLZ945 Large, Day 3): −98%
Total DAPI+ Cells (established PDG gliomas; BLZ945 Large, Day 3): −40%
Tumor Cells (% Olig2+) (established PDG gliomas; BLZ945 Large, Day 3): −14%
Apoptosis (% CC3+) (established PDG gliomas; BLZ945 Large, Day 7): +2-fold
Macrophages (% CD68+) (established PDG gliomas; BLZ945 Large, Day 7): +4-fold
Phagocytic Capacity (established PDG gliomas; BLZ945 Large, Day 7): +6.0-fold
Proliferation (% BrdU+Olig2+) (established PDG gliomas; BLZ945 Large, Day 7): −94%
Total DAPI+ Cells (established PDG gliomas; BLZ945 Large, Day 7): −65%
Tumor Cells (% Olig2+) (established PDG gliomas; BLZ945 Large, Day 7): −73%
Vasculature (CD31 MVD) (established PDG gliomas; BLZ945 Large, Day 7): −67%
Tumor Volume (Day −1 vs Day 6) (established PDG gliomas; BLZ945 Large, Day 7, start >40 mm3): −24.3%
mice with >30% reduction in tumor volume (partial response, RECIST) (established PDG gliomas; BLZ945 Large, tumors >40 mm3, 7 day trial): 6 of 18
reduction of tumor cell proliferation (established PDG gliomas; all groups and time points): 67-98%
treated mice exhibiting a tumor response (histology) (established PDG gliomas; already evident at d3): 100%
average blood vessel length (established PDG gliomas; both treatment groups compared to vehicle): decreased
average density of Olig2+ tumor cells, of total cells (established PDG gliomas; by d7, both CSF-1R inhibitor groups): < 20%
TAM numbers in tumors (established PDG gliomas; compared to vehicle): did not affect TAM numbers
increase in apoptosis (established PDG gliomas; d3): 9-to 17 fold
Iba1+ macrophages that are CSF-1R+ within the tumor (established PDG gliomas; d7): no significant differences
immune cell infiltration, comparisons between treatment groups (established PDG gliomas; day 7, flow cytometry): not significant
microglia in adjacent normal brain (established PDG gliomas; mouse, in vivo): evident microglia depletion
pericyte coverage of the vessels (established PDG gliomas; mouse, in vivo): no significant differences
tumor growth (MRI tumor volume) (established PDG gliomas; starting tumor volume 4.5-40 mm3, 7 day trial): significantly halted tumor growth
increase in Olig2+CC3+ cells engulfed by CD11b+ macrophages (established PDG gliomas; treated groups): 2 to 4 fold
increased phagocytic capacity of macrophages (established PDG gliomas; treated groups): 5 to 11.5 fold
expression of Mrc1/CD206 in BMDMs (Mrc1/CD206): downregulates
increase in tumor cell cycle entry with GCM-preconditioned BMDMs [2]: blocked
normal microglia in non-tumor bearing mice (normal microglia): depletes normal microglia
